{"source": "patent US11166958B2", "about": "“4-pyrazin-2-ylmethyl-morpholine derivatives and the use thereof as medicament” (Boehringer Ingelheim International GmbH, priority 2018, dated 2021)", "key": {"[1]": {"test": "Metabolic stability in pooled human liver microsomes", "format": "in vitro ADME", "details": "pH 7.6, 1 μM compound, 1 mg/mL microsomal protein, 37° C., NADPH, read-out: Half-life − t½ human liver microsomes", "source_text": "Stability in human liver microsomes refers to the susceptibility of compounds to biotransformation in the context of selecting and/or designing drugs with favorable pharmacokinetic properties. The primary site of metabolism for many drugs is the liver. Human liver microsomes contain the cytochrome P450s (CYPs), and thus represent a model system for studying drug metabolism in vitro Enhanced stability in human liver microsomes is associated with several advantages, including increased bioavailability and adequate half-life, which can enable lower and less frequent dosing of patients.\nThe metabolic degradation of the test compound was assayed at 37° C. with pooled human liver microsomes. The final incubation volume of 60 μl per time point contains TRIS buffer pH 7.6 at room temperature (0.1 M), magnesium chloride (5 mM aqueous solution), microsomal protein (1 mg/mL for human) and the test compound at a final concentration of 1 μM. Following a short preincubation period at 37° C., the reactions were initiated by addition of betanicotinamide adenine dinucleotide phosphate, reduced form (NADPH, 1 mM), and terminated by transferring an aliquot into acetonitril after different time points. After centrifugation (10000 g, 5 min), an aliquot of the supernatant was assayed by HPLC-MS/MS as described above for the MDCK assay P-gp for the amount of parent compound. The half-life was determined by the slope of the semi-logarithmic plot of the concentration-time profile."}, "human MDR1 (P-gp)": {"target": "human MDR1 (P-gp) (Homo sapiens (Human), UniProt P08183)", "sequence (P08183 whole entry)": "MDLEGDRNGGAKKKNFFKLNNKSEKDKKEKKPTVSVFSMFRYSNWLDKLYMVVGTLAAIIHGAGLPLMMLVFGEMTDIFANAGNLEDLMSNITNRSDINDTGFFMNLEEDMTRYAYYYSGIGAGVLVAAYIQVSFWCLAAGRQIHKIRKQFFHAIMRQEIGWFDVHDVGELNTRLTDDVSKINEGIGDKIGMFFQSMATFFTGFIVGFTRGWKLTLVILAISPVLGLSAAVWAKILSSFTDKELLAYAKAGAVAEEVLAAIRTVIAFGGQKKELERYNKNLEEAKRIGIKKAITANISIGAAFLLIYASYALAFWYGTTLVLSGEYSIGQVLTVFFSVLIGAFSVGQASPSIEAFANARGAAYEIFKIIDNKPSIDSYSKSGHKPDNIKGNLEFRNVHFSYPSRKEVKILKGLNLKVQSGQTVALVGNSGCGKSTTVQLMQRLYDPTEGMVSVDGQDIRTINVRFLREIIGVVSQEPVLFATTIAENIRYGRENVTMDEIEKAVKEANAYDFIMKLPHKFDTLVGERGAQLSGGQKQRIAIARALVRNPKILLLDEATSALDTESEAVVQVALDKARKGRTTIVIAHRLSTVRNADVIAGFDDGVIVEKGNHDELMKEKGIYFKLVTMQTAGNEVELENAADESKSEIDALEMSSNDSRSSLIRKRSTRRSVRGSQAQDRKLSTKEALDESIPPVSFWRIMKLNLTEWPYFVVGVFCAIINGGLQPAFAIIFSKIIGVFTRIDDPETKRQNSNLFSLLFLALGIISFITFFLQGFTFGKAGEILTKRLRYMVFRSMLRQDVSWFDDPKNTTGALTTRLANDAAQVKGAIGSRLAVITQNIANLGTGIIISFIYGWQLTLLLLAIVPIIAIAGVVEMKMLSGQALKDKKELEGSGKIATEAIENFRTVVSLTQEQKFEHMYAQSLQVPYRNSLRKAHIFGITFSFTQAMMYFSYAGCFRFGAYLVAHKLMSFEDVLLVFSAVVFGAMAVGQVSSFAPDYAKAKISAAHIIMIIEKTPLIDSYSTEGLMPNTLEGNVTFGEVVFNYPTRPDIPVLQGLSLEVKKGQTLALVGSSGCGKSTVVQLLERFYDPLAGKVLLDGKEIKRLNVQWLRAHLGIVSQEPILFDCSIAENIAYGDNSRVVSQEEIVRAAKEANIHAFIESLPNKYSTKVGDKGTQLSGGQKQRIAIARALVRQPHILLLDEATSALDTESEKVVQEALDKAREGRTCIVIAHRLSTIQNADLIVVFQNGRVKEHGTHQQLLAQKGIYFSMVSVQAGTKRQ", "test": "MDCK assay P-gp: permeability across MDCK-MDR1 monolayers", "format": "in vitro ADME", "details": "for Papp A→B at 2 h: MDCK-MDR1, apical-to-basal, pH 7.4; for efflux ratio at 2 h: pH 7.4, MDCK-MDR1, Papp (b-a) / Papp (a-b), read-out: efflux ratio PEBA/PEAB", "procedure": "The MDCK assays provide information on the potential of a compound to pass the blood brain barrier. Permeability measurements across polarized, confluent MDCK-MDR1 cell monolayers grown on permeable filter supports are used as an in vitro absorption model: apparent permeability coefficients (PE) of the compounds across the MDCK-MDR1 cell monolayers are measured (pH 7.4, 37° C.) in apical-to-basal (AB) and basal-to-apical (BA) transport direction. The AB permeability (PEAB) represents drug absorption from the blood into the brain and the BA permeability (PEBA) drug efflux from the brain back into the blood via both, passive permeability as well as active transport mechanisms mediated by efflux and uptake transporters that are expressed on the MDCK-MDR1 cells, predominantly by the overexpressed human MDR1. Identical or similar permeabilities in both transport directions indicate passive permeation (PEBA/PEAB≤1), vectorial permeability points to additional active transport mechanisms. Higher PEBA than PEAB (PEBA/PEAB>5) indicates the involvement of active efflux mediated by MDR1, which might compromise the goal to achieve sufficient brain exposure. Therefore, this assay provides valuable support for selection of compounds applicable for further in vivo testing. High permeability not limited by efflux at the blood brain barrier is a favourable characteristic for compounds that are to be used for drugs acting primarily in the CNS.\nApparent permeability coefficients (Papp) of the compounds across the MDCK-MDR1 monolayers (MDCKII cells transfected with human MDR1 cDNA expression plasmid) are measured in apical-to-basal (AB) and basal-to-apical (BA) direction.\nMDCK-MDR1 cells (6×10^5 cells/cm^2) are seeded on filter inserts (Corning, Transwell, polycarbonate, 0.4 μm pore size) and cultured for 9 to 10 days. Compounds dissolved in DMSO stock solution (1-20 mM) are diluted with HTP-4 aqueous buffer (128.13 mM NaCl, 5.36 mM KCl, 1 mM MgSO4, 1.8 mM CaCl2, 4.17 mM NaHCO3, 1.19 mM Na2HPO4, 0.41 mM NaH2PO4, 15 mM HEPES, 20 mM glucose, pH 7.4) supplemented with 0.25% BSA to prepare the transport solutions (final concentration: 1 or 10 μM, final DMSO<=0.5%). The transport solution is applied to the apical or basolateral donor side for measuring A-B or B-A permeability, respectively. The receiver side contains HTP-4 buffer supplemented with 0.25% BSA. Samples are collected at the start and end of experiment from the donor and at various time intervals for up to 2 hours also from the receiver side for concentration measurement by HPLC-MS/MS (RapidFire High-throughput MS System (Agilent) coupled to QTrap 6500 (AB Sciex) or TSQ Vantage (Thermo Scientific)). Sampled receiver volumes are replaced with fresh receiver solution. Efflux ratio is calculated dividing the Papp (b-a) values by the Papp (a-b) values."}}, "data": [{"smiles": "CNC(=O)[C@@H]1CN(Cc2cnc(Oc3ccc(C)cc3F)cn2)CCO1", "note": "[Example 2]", "values": [{"measurement": "half-life at 1 µM", "setting": "[1]", "value": "> 2.17", "unit": "h"}, {"measurement": "Papp A→B at 2 h", "setting": "human MDR1 (P-gp)", "value": 76, "unit": "×10⁻⁶ cm/s"}, {"measurement": "efflux ratio at 2 h", "setting": "human MDR1 (P-gp)", "value": 0.6}]}, {"smiles": "CNC(=O)[C@@H]1CN(Cc2cnc(Oc3ccc(F)cc3C)cn2)CCO1", "note": "[Example 8]", "values": [{"measurement": "half-life at 1 µM", "setting": "[1]", "value": "> 2.17", "unit": "h"}, {"measurement": "Papp A→B at 2 h", "setting": "human MDR1 (P-gp)", "value": 70, "unit": "×10⁻⁶ cm/s"}, {"measurement": "efflux ratio at 2 h", "setting": "human MDR1 (P-gp)", "value": 0.6}]}, {"smiles": "CNC(=O)[C@@H]1CN(Cc2cnc(Oc3ccc(C)cc3C)cn2)CCO1", "note": "[Example 4]", "values": [{"measurement": "half-life at 1 µM", "setting": "[1]", "value": "> 2.17", "unit": "h"}, {"measurement": "Papp A→B at 2 h", "setting": "human MDR1 (P-gp)", "value": 61, "unit": "×10⁻⁶ cm/s"}, {"measurement": "efflux ratio at 2 h", "setting": "human MDR1 (P-gp)", "value": 0.7}]}, {"smiles": "CNC(=O)[C@@H]1CN(Cc2cnc(Oc3ccc(F)cc3)cn2)CCO1", "note": "[Example 1]", "values": [{"measurement": "half-life at 1 µM", "setting": "[1]", "value": "> 2.17", "unit": "h"}, {"measurement": "Papp A→B at 2 h", "setting": "human MDR1 (P-gp)", "value": 59, "unit": "×10⁻⁶ cm/s"}, {"measurement": "efflux ratio at 2 h", "setting": "human MDR1 (P-gp)", "value": 0.7}]}, {"smiles": "CCNC(=O)[C@@H]1CN(Cc2cnc(Oc3ccc(F)cc3F)cn2)CCO1", "note": "[Example 30]", "values": [{"measurement": "half-life at 1 µM", "setting": "[1]", "value": "> 2.17", "unit": "h"}, {"measurement": "Papp A→B at 2 h", "setting": "human MDR1 (P-gp)", "value": 81, "unit": "×10⁻⁶ cm/s"}, {"measurement": "efflux ratio at 2 h", "setting": "human MDR1 (P-gp)", "value": 0.4}]}, {"smiles": "CCNC(=O)[C@@H]1CN(Cc2cnc(Oc3ccc(C)cc3F)cn2)CCO1", "note": "[Example 31]", "values": [{"measurement": "half-life at 1 µM", "setting": "[1]", "value": "> 2.17", "unit": "h"}, {"measurement": "Papp A→B at 2 h", "setting": "human MDR1 (P-gp)", "value": 66, "unit": "×10⁻⁶ cm/s"}, {"measurement": "efflux ratio at 2 h", "setting": "human MDR1 (P-gp)", "value": 0.6}]}, {"smiles": "CNC(=O)[C@@H]1CN(Cc2cnc(Oc3ccccc3Cl)cn2)CCO1", "note": "[Example 18]", "values": [{"measurement": "half-life at 1 µM", "setting": "[1]", "value": "> 2.17", "unit": "h"}, {"measurement": "Papp A→B at 2 h", "setting": "human MDR1 (P-gp)", "value": 61, "unit": "×10⁻⁶ cm/s"}, {"measurement": "efflux ratio at 2 h", "setting": "human MDR1 (P-gp)", "value": 0.8}]}, {"smiles": "CNC(=O)[C@@H]1CN(Cc2cnc(Oc3ccccc3F)cn2)CCO1", "note": "[Example 9]", "values": [{"measurement": "half-life at 1 µM", "setting": "[1]", "value": "> 2.17", "unit": "h"}, {"measurement": "Papp A→B at 2 h", "setting": "human MDR1 (P-gp)", "value": 62, "unit": "×10⁻⁶ cm/s"}, {"measurement": "efflux ratio at 2 h", "setting": "human MDR1 (P-gp)", "value": 0.9}]}, {"smiles": "CCNC(=O)[C@@H]1CN(Cc2cnc(Oc3ccccc3Cl)cn2)CCO1", "note": "[Example 33]", "values": [{"measurement": "half-life at 1 µM", "setting": "[1]", "value": "> 2.17", "unit": "h"}, {"measurement": "Papp A→B at 2 h", "setting": "human MDR1 (P-gp)", "value": 59, "unit": "×10⁻⁶ cm/s"}, {"measurement": "efflux ratio at 2 h", "setting": "human MDR1 (P-gp)", "value": 0.7}]}, {"smiles": "CNC(=O)[C@@H]1CN(Cc2cnc(Oc3ccc(F)cc3F)cn2)CCO1", "note": "[Example 6]", "values": [{"measurement": "half-life at 1 µM", "setting": "[1]", "value": "> 2.17", "unit": "h"}, {"measurement": "Papp A→B at 2 h", "setting": "human MDR1 (P-gp)", "value": 71, "unit": "×10⁻⁶ cm/s"}, {"measurement": "efflux ratio at 2 h", "setting": "human MDR1 (P-gp)", "value": 0.8}]}, {"smiles": "CNC(=O)[C@@H]1CN(Cc2cnc(Oc3ccc(Cl)cc3F)cn2)CCO1", "note": "[Example 5]", "values": [{"measurement": "half-life at 1 µM", "setting": "[1]", "value": "> 2.17", "unit": "h"}, {"measurement": "Papp A→B at 2 h", "setting": "human MDR1 (P-gp)", "value": 59, "unit": "×10⁻⁶ cm/s"}, {"measurement": "efflux ratio at 2 h", "setting": "human MDR1 (P-gp)", "value": 0.8}]}, {"smiles": "CNC(=O)[C@@H]1CN(Cc2cnc(Oc3ccc(C)cc3)cn2)CCO1", "note": "[Example 3]", "values": [{"measurement": "half-life at 1 µM", "setting": "[1]", "value": "> 2.17", "unit": "h"}, {"measurement": "Papp A→B at 2 h", "setting": "human MDR1 (P-gp)", "value": 75, "unit": "×10⁻⁶ cm/s"}, {"measurement": "efflux ratio at 2 h", "setting": "human MDR1 (P-gp)", "value": 0.7}]}, {"smiles": "CNC(=O)[C@@H]1CN(Cc2cnc(Oc3ccc(Cl)cc3)cn2)CCO1", "note": "[Example 7]", "values": [{"measurement": "half-life at 1 µM", "setting": "[1]", "value": "> 2.17", "unit": "h"}, {"measurement": "Papp A→B at 2 h", "setting": "human MDR1 (P-gp)", "value": 66, "unit": "×10⁻⁶ cm/s"}, {"measurement": "efflux ratio at 2 h", "setting": "human MDR1 (P-gp)", "value": 0.7}]}]}
